Measurements taken from patent US7282522B2, “Hydroxamic acid derivatives and the method for preparing thereof” (Amorepacific Corporation, priority 2003, dated 2007).

What was measured:
rabbits = assay: Primary skin irritation test on animals (Draize P.I.I.); settings: depilated back; for P.I.I. (Primary Irritation Index): 0.5 ml of 1% solution in 1,3-butylene glycol:ethanol 7:3, observed 24 or 72 hours later; for Evaluation (skin irritation): 1% solution, according to Draize's P.I.I.
Procedure: Test was performed using fifty-six (56) of healthy male rabbits whose backs were depilated. […] 0.5ml of the test sample solution was applied to the right site of 2.5 cm×2.5 cm region on each of the depilated back. Left site with no sample treated was compared as a control. 24 hours or 72 hours later, skin abnormality such as erythema, crust and edema was observed.
Based on the score of skin response, skin irritation was evaluated according to Draize's P.I.I.(Primary Irritation Index) and compared with retinoic acid.

RARα = molecular target: T1, RARα (Homo sapiens, UniProt P10276); assay: RARE-luciferase reporter assay in transfected CV-1 cells (affinity to retinoic acid receptor), RARα; format: cell-based; settings: treated 24 hours at final concentration 10^−4M, control group 1000
T1 construct: expressed in transfected cells; host or cells: CV-1 cells (ATCC)
T1 sequence (P10276 1-462): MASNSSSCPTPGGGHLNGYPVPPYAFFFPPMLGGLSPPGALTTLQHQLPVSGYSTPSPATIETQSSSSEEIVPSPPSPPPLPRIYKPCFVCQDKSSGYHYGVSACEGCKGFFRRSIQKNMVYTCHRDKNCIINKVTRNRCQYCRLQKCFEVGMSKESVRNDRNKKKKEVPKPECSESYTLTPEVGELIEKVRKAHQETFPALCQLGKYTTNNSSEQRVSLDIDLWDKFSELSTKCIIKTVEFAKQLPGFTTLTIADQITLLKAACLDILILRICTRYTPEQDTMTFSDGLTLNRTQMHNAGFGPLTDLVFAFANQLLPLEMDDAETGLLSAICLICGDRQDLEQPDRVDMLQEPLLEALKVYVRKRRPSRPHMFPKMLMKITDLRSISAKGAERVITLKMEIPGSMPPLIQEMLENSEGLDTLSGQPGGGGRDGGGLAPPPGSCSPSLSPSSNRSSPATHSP
How it was run: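 CV-1 cells co-transfected with pECE-RARα or pECE-RARγ, RARE-tk-Luc reporter and β-galactosidase vector. Starting 24 h post-transfection, cells were treated for 24 h with compounds at a final 10^−4M; luciferase reporter read-out.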

elastase = assay: Inhibition of elastase expression in human fibroblasts (ELISA kit); format: cell-based; settings: 10^−4M, 24 hours, serum-free medium, relative to control group = 100
How it was run: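 Elastase in fibroblast culture fluid quantified by sandwich ELISA: 3 h capture, then chromophore-conjugated secondary antibody, then colour development, stopped with 1M sulfuric acid. Absorbance read at 405 nm. Expression given as % of the untreated control absorbance, with control set to 100.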

procollagen type I = assay: Effect on collagen biosynthesis (procollagen type I ELISA) in human fibroblasts; format: cell-based; settings: 10^−4M, 24 hours, serum-free medium, relative to control group = 100
Procedure: Human fibroblasts were seeded into 24-well plate at 1×10^5 cells per well and then cultured to 90% of growth.
For each supernatant, procollagen production was measured with procollagen type I ELISA kit.

collagenase = assay: Inhibition of collagenase expression in human fibroblasts (ELISA kit); format: cell-based; settings: 10^−4M, 24 hours, serum-free medium, relative to control group = 100
How it was run: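 Serum-starved human fibroblasts were treated for 24 h with 10^−4M test material in serum-free DMEM. Collagenase in the culture fluid was measured by sandwich ELISA read at 405 nm. Values are expressed as % of the untreated control (=100).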

RARγ = molecular target: T2, RARγ (Homo sapiens, UniProt P13631); assay: RARE-luciferase reporter assay in transfected CV-1 cells (affinity to retinoic acid receptor), RARγ; format: cell-based; settings: treated 24 hours at final concentration 10^−4M, control group 5000
T2 construct: expressed in transfected cells; host or cells: CV-1 cells (ATCC)
T2 sequence (P13631 1-454): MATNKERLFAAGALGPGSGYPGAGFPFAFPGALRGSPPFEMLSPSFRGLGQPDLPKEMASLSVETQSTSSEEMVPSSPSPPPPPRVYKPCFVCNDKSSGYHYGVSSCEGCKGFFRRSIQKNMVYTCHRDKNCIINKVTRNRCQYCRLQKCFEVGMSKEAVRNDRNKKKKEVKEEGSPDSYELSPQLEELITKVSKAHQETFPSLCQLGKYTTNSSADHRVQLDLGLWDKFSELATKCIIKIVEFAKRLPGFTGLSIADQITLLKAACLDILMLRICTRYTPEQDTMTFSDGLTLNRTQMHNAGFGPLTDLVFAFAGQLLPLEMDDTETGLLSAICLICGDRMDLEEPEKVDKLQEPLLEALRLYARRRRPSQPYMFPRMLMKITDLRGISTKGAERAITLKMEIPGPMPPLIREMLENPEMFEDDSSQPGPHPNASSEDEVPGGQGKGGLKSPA
How it was run: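 CV-1 cells in DMEM with 2.5% FBS, 5,000 per well, transfected 24 h after seeding with 10 ng pECE-RARα, pECE-RARγ, 100 ng RARE-tk-Luc reporter and 100 ng β-galactosidase vector. Read-out is RARE-driven luciferase.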

white guinea pigs = assay: Phototoxicity test (UVA irradiation); settings: for Evaluation (phototoxicity): 1%(w/v) solution, UVA 15 J/cm^2; for Phototoxic index: 50 μl of 1%(w/v) solution, UVA 320~380 nm 15 J/cm^2, observed 24, 48 and 72 hours

Compound	P.I.I. (Primary Irritation Index) (rabbits)	Evaluation (skin irritation) (rabbits)	Luciferase activity RARα (RARα)	Elastase expression (%) (elastase)	Collagen biosynthesis (%) (procollagen type I)	Collagenase expression (%) (collagenase)	Luciferase activity RARγ (RARγ)	Evaluation (phototoxicity) (white guinea pigs)	Phototoxic index (white guinea pigs)
CN(O)C(=O)Cc1ccc(NC(=O)C23CC4CC(CC(C4)C2)C3)cc1 [Example 33, 2-[4-(adamantlycarbonylamino)phenyl]-N-hydroxy-N-methylacetamide]	0.765	No irritation	13400	82%	112%	70%	11000	No phototoxicity (lower value than 0.5, criterion value to be estimated as no phototoxicity)	0
Cc1ccc(NC(=O)c2ccc(C(=O)NO)cc2)cc1 [Example 35, [4-(N-hydroxycarbamoyl)phenyl]-N-[4-methylphenyl]carboxyamide]	0.245	No irritation	14500	71%	111%	90%	11300	No phototoxicity (lower value than 0.5, criterion value to be estimated as no phototoxicity)	0
Cc1cccc(NC(=O)c2ccc(C(=O)NO)cc2)c1 [Example 36, [4-(N-hydroxycarbamoyl)phenyl]-N-[3-methylphenyl]carboxyamide]	0.456	No irritation	16700	79%	121%	68%	11200	No phototoxicity (lower value than 0.5, criterion value to be estimated as no phototoxicity)	0
CCc1ccc(NC(=O)c2ccc(C(=O)NO)cc2)cc1 [Example 37, [4-(N-hydroxycarbamoyl)phenyl]-N-[4-ethylphenyl]carboxyamide]	0.456	No irritation	19000	80%	121%	70%	10300	No phototoxicity (lower value than 0.5, criterion value to be estimated as no phototoxicity)	0
CCCc1ccc(NC(=O)c2ccc(C(=O)NO)cc2)cc1 [Example 38, [4-(N-hydroxycarbamoyl)phenyl]-N-[4-propylphenyl]carboxyamide]	0.567	No irritation	17500	69%	109%	87%	10400	No phototoxicity (lower value than 0.5, criterion value to be estimated as no phototoxicity)	0
CC(C)c1ccc(NC(=O)c2ccc(C(=O)NO)cc2)cc1 [Example 39, [4-(N-hydroxycarbamoyl)phenyl]-N-[4-isopropylphenyl]carboxyamide]	0.145	No irritation	18700	87%	105%	78%	10100	No phototoxicity (lower value than 0.5, criterion value to be estimated as no phototoxicity)	0
CCCCc1ccc(NC(=O)c2ccc(C(=O)NO)cc2)cc1 [Example 40, [4-(N-hydroxycarbamoyl)phenyl]-N-[4-butylphenyl]carboxyamide]	0.546	No irritation	14300	90%	108%	77%	11200	No phototoxicity (lower value than 0.5, criterion value to be estimated as no phototoxicity)	0
CC(C)(C)c1ccc(NC(=O)c2ccc(C(=O)NO)cc2)cc1 [Example 41, [4-(N-hydroxycarbamoyl)phenyl]-N-[4-tert-butylphenyl]carboxyamide]	0.367	No irritation	14300	78%	115%	88%	11211	No phototoxicity (lower value than 0.5, criterion value to be estimated as no phototoxicity)	0
Cc1ccc(NC(=O)c2ccc(C(=O)NO)cc2)cc1C [Example 42, [4-(N-hydroxycarbamoyl)phenyl]-N-[3,4-dimethylphenyl]carboxyamide]	0.987	No irritation	14500	76%	116%	78%	11200	No phototoxicity (lower value than 0.5, criterion value to be estimated as no phototoxicity)	0
O=C(NO)c1ccc(C(=O)NC23CC4CC(CC(C4)C2)C3)cc1 [Example 43, [4-(N-hydroxycarbamoyl)phenyl]-N-adamantyl carboxyamide]	0.456	No irritation	18900	70%	130%	77%	10600	No phototoxicity (lower value than 0.5, criterion value to be estimated as no phototoxicity)	0
Cc1ccc(N(C)C(=O)c2ccc(C(=O)NO)cc2)cc1 [Example 46, [4-(N-hydroxycarbamoyl)phenyl]-N-methyl-N-[4-methylphenyl]carboxyamide]	0.345	No irritation	13200	80%	121%	83%	11123	No phototoxicity (lower value than 0.5, criterion value to be estimated as no phototoxicity)	0
Cc1cccc(N(C)C(=O)c2ccc(C(=O)NO)cc2)c1 [Example 47, [4-(N-hydroxycarbamoyl)phenyl]-N-methyl-N-[3-methylphenyl]carboxyamide]	0.367	No irritation	12200	83%	112%	79%	11700	No phototoxicity (lower value than 0.5, criterion value to be estimated as no phototoxicity)	0
